Data: patent US20090203750A1, “5-HT2C Receptor Agonists as Anorectic Agents” (priority 2005, published 2009)
Like-named read-outs stand apart in the source and are kept apart here.

Legend:
human 5-HT2C receptor = target: T1, human 5-HT2C receptor (Homo sapiens, UniProt P28335); assay: Functional activity by Ca++-flux (intracellular calcium mobilization), 5-HT2C; assay type: cell-based; conditions: for EC50: Ca++-flux, HEK-293 cells, NA = not active, read-out: 5-HT2C human EC50; for 2A/2C ratio: ratio of EC50 5-HT2A / 5-HT2C; for 2B/2C ratio: ratio of EC50 5-HT2B / 5-HT2C
T1 construct: expressed in transfected cells; host or cells: HEK-293
T1 sequence (P28335 33-458): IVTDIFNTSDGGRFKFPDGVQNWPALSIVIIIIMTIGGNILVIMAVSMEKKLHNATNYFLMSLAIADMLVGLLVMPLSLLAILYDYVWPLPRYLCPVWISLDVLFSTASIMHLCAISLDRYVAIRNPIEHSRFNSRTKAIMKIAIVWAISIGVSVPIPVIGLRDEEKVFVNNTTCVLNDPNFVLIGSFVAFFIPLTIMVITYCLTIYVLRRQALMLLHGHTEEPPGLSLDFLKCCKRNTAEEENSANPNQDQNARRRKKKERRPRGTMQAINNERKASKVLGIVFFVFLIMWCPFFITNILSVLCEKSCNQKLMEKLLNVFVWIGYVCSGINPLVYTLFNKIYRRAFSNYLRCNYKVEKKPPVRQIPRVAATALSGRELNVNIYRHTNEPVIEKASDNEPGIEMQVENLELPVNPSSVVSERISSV
Experimental: The functional activity of compounds for the human 5-HT2A, human 5-HT2B, and human 5-HT2C receptors as agonists, partial agonists and antagonists is determined by measurement of Ca++-flux. […] As noted above, other methods for assessing agonist/antagonist function of compounds for 5-HT2 family receptors are known in the art.
(§1) For these studies stably expressing lines of h5-HT2A, h5-HT2B, and h5-HT2C receptors are prepared in HEK-293 cells. For the h5-HT2A and h5-HT2C-INI receptors, stably expressing HEK-293 cell lines were constructed as previously described using a pIRES-NEO vector system (See: Rauser et al, J Pharmacol Exp Ther 299: 83-89, 2001).
(§2) Stable cell lines were plated with ˜40,000 cells/well into uncoated (3T3 cells) or poly-L-lysine coated (HEK293 cells) 96-well plates in DMEM supplemented with 5% dialyzed FBS. 16-24 hrs post-plating, the medium was aspirated and replaced with 30 μl/well of Calcium Assay Kit Component A Dye (Molecular Devices; Sunnyvale, Calif.) dissolved in 30 ml/bottle of assay buffer (2.5 mM probenecid, 20 mM Hepes, and 1× Hanks' Balanced Salt Solution (Invitrogen; Carlsbad, Calif.) (138 mM NaCl, 5.3 mM KCl, 1.3 mM CaCl2, 0.49 mM MgCl2, 0.41 mM MgSO4, 0.44 mM KH2PO4, 0.34 mM Na2HPO4) pH 7.4. Plates were incubated in the dye for 1 hr at 37° C. Dilutions were made in assay buffer as 2× stocks and added to 96-well drug plates. Fluorometric imaging was performed using a FlexStation II plate reader (Molecular Devices) reading the plate at 1.5 second intervals for 1 min. After establishing a fluorescent baseline (excitation at 485 nm and emission at 525 nm, using a […] cutoff), the FlexStation II automatically transferred 30 μl of 2× drug stocks from the drug plate to the cell plate at the 20 second time point with reading for another 40 seconds. Peak relative fluorescence units (RFU) were subtracted from baseline RFUs using SoftMax Pro (Molecular Devices) and values were imported into GraphPad Prism version 4.03 (GraphPad Software; San Diego, Calif.) for analysis. Ca++-flux studies are very convenient for initial screening of large numbers of compounds for agonist activity.
(§3) Compounds are resuspended in DMSO at a stock concentration of 2-15 mM and, for a typical agonist screen, are diluted in assay buffer to a final 2× concentration of 20 μM into drugs plates. Compounds are added in duplicate to cell plates using the FlexStation II as described to identify agonists, defined as having >10% of maximal 5-HT response. […] Generally, screens are performed twice with each determination being made in duplicate.
(§4) Compounds identified by primary screens to be agonists are subsequently used in concentration-response experiments to verify the initial observations and obtain agonist potencies. Concentration-response studies are performed in triplicate or quadruplicate at each concentration and repeated three times. Baseline-subtracted RFU values imported into GraphPad Prism are analyzed by non-linear regression to obtain pEC50 values, and normalized to maximal 5-HT response to obtain relative efficacies.

human 5-HT2B receptor = target: T2, human 5-HT2B receptor (Homo sapiens, UniProt P41595); assay: Functional activity by Ca++-flux (intracellular calcium mobilization), 5-HT2B; assay type: cell-based; conditions: Ca++-flux, HEK-293 cells, NA = not active; for EC50: read-out: 5-HT2B human EC50
T2 construct: expressed in transfected cells; host or cells: HEK293 (ATCC CRL-1573), retroviral infection with pBabepuro-FLAG-h5-HT2BR, polyclonal line
T2 sequence (P41595 whole entry): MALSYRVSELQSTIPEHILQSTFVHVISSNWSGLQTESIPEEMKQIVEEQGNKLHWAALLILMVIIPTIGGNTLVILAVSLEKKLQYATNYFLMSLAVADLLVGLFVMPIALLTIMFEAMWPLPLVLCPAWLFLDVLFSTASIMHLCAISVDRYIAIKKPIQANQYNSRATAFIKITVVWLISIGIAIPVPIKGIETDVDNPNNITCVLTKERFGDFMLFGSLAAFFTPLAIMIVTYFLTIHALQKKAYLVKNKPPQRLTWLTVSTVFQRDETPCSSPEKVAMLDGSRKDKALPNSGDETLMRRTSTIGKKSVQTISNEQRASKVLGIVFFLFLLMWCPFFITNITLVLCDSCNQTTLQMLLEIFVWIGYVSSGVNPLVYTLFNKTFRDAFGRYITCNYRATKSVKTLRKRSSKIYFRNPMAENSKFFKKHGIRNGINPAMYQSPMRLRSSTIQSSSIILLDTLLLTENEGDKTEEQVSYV

6 Hz seizure model = 6 Hz seizure model in mice; assay type: in vivo; conditions: 100 mg/kg i.p.
human 5-HT2A receptor = target: T3, human 5-HT2A receptor (Homo sapiens, UniProt P28223); assay: Functional activity by Ca++-flux (intracellular calcium mobilization), 5-HT2A; assay type: cell-based; conditions: Ca++-flux, HEK-293 cells, NA = not active
T3 construct: expressed in transfected cells; host or cells: HEK-293
T3 sequence (P28223 whole entry): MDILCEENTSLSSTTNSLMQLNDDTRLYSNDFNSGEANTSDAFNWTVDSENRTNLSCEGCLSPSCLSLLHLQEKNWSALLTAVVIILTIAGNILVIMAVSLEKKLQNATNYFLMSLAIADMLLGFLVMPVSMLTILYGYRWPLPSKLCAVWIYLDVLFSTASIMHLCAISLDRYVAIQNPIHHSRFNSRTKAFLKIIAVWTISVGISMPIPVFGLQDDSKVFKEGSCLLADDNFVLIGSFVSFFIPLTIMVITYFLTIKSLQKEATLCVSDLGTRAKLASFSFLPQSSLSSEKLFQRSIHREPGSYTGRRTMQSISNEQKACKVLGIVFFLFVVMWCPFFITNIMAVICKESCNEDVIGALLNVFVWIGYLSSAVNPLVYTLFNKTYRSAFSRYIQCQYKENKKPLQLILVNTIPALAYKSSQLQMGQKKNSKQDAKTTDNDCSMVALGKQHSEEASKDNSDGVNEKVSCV
Experimental: The functional activity of the compounds for the human 5-HT2A, human 5-HT2B, and human 5-HT2C receptors is determined by measurement of Ca++-flux as detailed in the Examples, in transiently transfected HEK-293 cells and the results are summarized in Table I. Structures of compounds listed in Table I are given in Scheme 15.
The functional activity of compounds for the human 5-HT2A, human 5-HT2B, and human 5-HT2C receptors as agonists, partial agonists and antagonists is determined by measurement of Ca++-flux. The results are summarized in Table 1 where EC50 for different receptors are given (nM) and the ratio of activities 2A/2C and 2B/2C are also given. As noted above, other methods for assessing agonist/antagonist function of compounds for 5-HT2 family receptors are known in the art.
as §1, §2
as §3, with “duplicate. Typical Z′-factor (Zhang et al., 1999) values for agonist screens ranged from 0.61-0.79 (5-HT2AR), 0.42-0.81 (5-HT2BR) and 0.38-0.72 (5-HT2CR); these Z′-factor values are adequate for screening studies in which N=2 determinations are made and the screens replicated for a total of N=4 determinations.” for “duplicate.”
as §4

MOA = conditions: in vivo in rats, tryptamine potentiation test; Kaiser / Zirkel 1962; cited from earlier work

Row | Substance | EC50 (human 5-HT2C receptor) [µM] | 2A/2C ratio (human 5-HT2C receptor) | 2B/2C ratio (human 5-HT2C receptor) | EC50 (human 5-HT2B receptor) [µM] | EC50 (human 5-HT2A receptor) [µM] | also measured
1 | trans-(±)-(2-Phenyl-cyclopropyl)-methylamine Hydrochloride [TKU-II-17] |  |  |  |  |  | EC50 (human 5-HT2C receptor; Hydrochloride): 0.0096 µM; 2A/2C ratio (human 5-HT2C receptor; Hydrochloride): 5.18; 2B/2C ratio (human 5-HT2C receptor; Hydrochloride): 1.94; EC50 (human 5-HT2B receptor; Hydrochloride): 0.0186 µM; motor impairment (6 Hz seizure model; 15-60 minutes after dosing): minimal motor impairment; animals protected from seizure (6 Hz seizure model; after four hours): three of the four; EC50 (human 5-HT2A receptor; Hydrochloride): 0.0497 µM
2 | trans-(±)-[2-(4′-Fluoro-biphenyl-4-yl)-cyclopropyl]-methylamine Hydrochloride [TKU-II-57] | 10.2 | 101.1 | 61 | 624 | 1030 | 
3 | trans-(±)-[2-(4′-Trifluoromethyl-biphenyl-2-yl)-cyclopropyl]-methylamine Hydrochloride [TKU-II-120] | 0.0101 |  |  |  |  | 5-HT2B human EC50 (human 5-HT2B receptor): Not; 5-HT2A human EC50 (human 5-HT2A receptor): Not
4 | trans-(±)-[2-(4′-Trifluoromethyl-biphenyl-4-yl)-cyclopropyl]-methylamine Hydrochloride [TKU-II-58] | 0.226 | 15.1 | 5.62 | 1.27 | 3.41 | 
5 | trans-(−)-(2-Phenyl-cyclopropyl)-methylamine Hydrochloride [TKU-II-115] | 0.28 | 6.02 | 5.49 | 1.54 | 1.69 | 
6 | trans-(−)-[2-(3-Bromo-phenyl)-cyclopropyl]-methylamine Hydrochloride [TKU-II-153-2] | 0.307 | 7.4 | 0.82 | 0.251 | 2.27 | 
7 | trans-aminomethyl-2-phenylcyclopropylamine |  |  |  |  |  | inhibition of MOA (MOA): not to inhibit MOA
